Literature values in PubChem BioAssay AID1259409 (Chemical Carcinogenesis Research Information System (CCRIS), 2018).

Test system: rodent chemically induced tumor inhibition, incidence and multiplicity
Test: CCRIS tumor inhibitor studies
Details: Route [Inhibitor]: ORAL, Promoter: NONE USED

## ClC(Cl)Cl
Carcinogen: 1,2-DIMETHYLHYDRAZINE DIHYDROCHLORIDE, 306-37-6, Dose [Inhibitor]: 900 MG/L IN DRINKING WATER BEGINNING 7 D POST CARCINOGEN DOSE AND CONTINUING FOR 39 WK (STUDY DURATION: 39 WK), Species: RAT, Strain/Sex: F344/MALE, Target Tissue: Type of Lesion: GASTROINTESTINAL TRACT: TUMOR, Dose [Carcinogen]: 200 MG/KG ONCE
  tumour outcome (control, treated, inhibition, significance): 14/39 (36%), 5/39 (13%), 64%, not calculated
Carcinogen: 1,2-DIMETHYLHYDRAZINE DIHYDROCHLORIDE, 306-37-6, Dose [Inhibitor]: 1800 MG/L IN DRINKING WATER BEGINNING 7 D POST CARCINOGEN DOSE AND CONTINUING FOR 39 WK (STUDY DURATION: 39 WK), Species: RAT, Strain/Sex: F344/MALE, Target Tissue: Type of Lesion: GASTROINTESTINAL TRACT: TUMOR, Dose [Carcinogen]: 200 MG/KG ONCE
  tumour outcome (control, treated, inhibition, significance): 14/39 (36%), 5/40 (13%), 64%, not calculated
Carcinogen: ETHYLNITROSOUREA, 759-73-9, Dose [Inhibitor]: 0, 1800 PPM IN DRINKING WATER BEGINNING AT 5 WK OF AGE AND CONTINUING TO 51 WK OF AGE (STUDY DURATION: 52 WK), Species: MOUSE, Strain/Sex: CD-1/FEMALE, Target Tissue: Type of Lesion: LUNG: ADENOMA, Dose [Carcinogen]: 5 MG/KG ONCE AT 15 D OF AGE
  tumour outcome (control, treated, inhibition, significance): 10/36 (28%), 7/38 (18%), 36%, not calculated
Carcinogen: ETHYLNITROSOUREA, 759-73-9, Dose [Inhibitor]: 0, 1800 PPM IN DRINKING WATER BEGINNING AT 5 WK OF AGE AND CONTINUING TO 51 WK OF AGE (STUDY DURATION: 52 WK), Species: MOUSE, Strain/Sex: CD-1/FEMALE, Target Tissue: Type of Lesion: LUNG: ADENOMA, Dose [Carcinogen]: 20 MG/KG ONCE AT 15 D OF AGE
  tumour outcome (control, treated, inhibition, significance): 25/39 (64%), 23/45 (51%), 20%, not calculated
Carcinogen: ETHYLNITROSOUREA, 759-73-9, Dose [Inhibitor]: 0, 1800 PPM IN DRINKING WATER BEGINNING AT 5 WK OF AGE AND CONTINUING TO 51 WK OF AGE (STUDY DURATION: 52 WK), Species: MOUSE, Strain/Sex: CD-1/FEMALE, Target Tissue: Type of Lesion: LUNG: CARCINOMA, Dose [Carcinogen]: 5 MG/KG ONCE AT 15 D OF AGE
  tumour outcome (control, treated, inhibition, significance): 1/36 (3%), 2/38 (5%), -67%, not calculated
Carcinogen: ETHYLNITROSOUREA, 759-73-9, Dose [Inhibitor]: 0, 1800 PPM IN DRINKING WATER BEGINNING AT 5 WK OF AGE AND CONTINUING TO 51 WK OF AGE (STUDY DURATION: 52 WK), Species: MOUSE, Strain/Sex: CD-1/FEMALE, Target Tissue: Type of Lesion: LUNG: CARCINOMA, Dose [Carcinogen]: 20 MG/KG ONCE AT 15 D OF AGE
  tumour outcome (control, treated, inhibition, significance): 2/39 (5%), 5/45 (11%), -120%, not calculated
Carcinogen: ETHYLNITROSOUREA, 759-73-9, Dose [Inhibitor]: 0, 1800 PPM IN DRINKING WATER BEGINNING AT 5 WK OF AGE AND CONTINUING TO 51 WK OF AGE (STUDY DURATION: 52 WK), Species: MOUSE, Strain/Sex: CD-1/MALE, Target Tissue: Type of Lesion: LIVER: ADENOMA, Dose [Carcinogen]: 5 MG/KG ONCE AT 15 D OF AGE
  tumour outcome (control, treated, inhibition, significance): 8/39 (21%), 1/25 (4%), 81%, p<0.05
Carcinogen: ETHYLNITROSOUREA, 759-73-9, Dose [Inhibitor]: 0, 1800 PPM IN DRINKING WATER BEGINNING AT 5 WK OF AGE AND CONTINUING TO 51 WK OF AGE (STUDY DURATION: 52 WK), Species: MOUSE, Strain/Sex: CD-1/MALE, Target Tissue: Type of Lesion: LIVER: ADENOMA, Dose [Carcinogen]: 20 MG/KG ONCE AT 15 D OF AGE
  tumour outcome (control, treated, inhibition, significance): 22/30 (73%), 12/29 (41%), 44%, p<0.05
Carcinogen: ETHYLNITROSOUREA, 759-73-9, Dose [Inhibitor]: 0, 1800 PPM IN DRINKING WATER BEGINNING AT 5 WK OF AGE AND CONTINUING TO 51 WK OF AGE (STUDY DURATION: 52 WK), Species: MOUSE, Strain/Sex: CD-1/MALE, Target Tissue: Type of Lesion: LIVER: CARCINOMA, Dose [Carcinogen]: 5 MG/KG ONCE AT 15 D OF AGE
  tumour outcome (control, treated, inhibition, significance): 2/39 (5%), 0/25 (0%), 100%, not calculated
Carcinogen: ETHYLNITROSOUREA, 759-73-9, Dose [Inhibitor]: 0, 1800 PPM IN DRINKING WATER BEGINNING AT 5 WK OF AGE AND CONTINUING TO 51 WK OF AGE (STUDY DURATION: 52 WK), Species: MOUSE, Strain/Sex: CD-1/MALE, Target Tissue: Type of Lesion: LIVER: CARCINOMA, Dose [Carcinogen]: 20 MG/KG ONCE AT 15 D OF AGE
  tumour outcome (control, treated, inhibition, significance): 10/30 (33%), 5/29 (17%), 48%, p<0.1
Carcinogen: ETHYLNITROSOUREA, 759-73-9, Dose [Inhibitor]: 0, 1800 PPM IN DRINKING WATER BEGINNING AT 5 WK OF AGE AND CONTINUING TO 51 WK OF AGE (STUDY DURATION: 52 WK), Species: MOUSE, Strain/Sex: CD-1/MALE, Target Tissue: Type of Lesion: LUNG: ADENOMA, Dose [Carcinogen]: 5 MG/KG ONCE AT 15 D OF AGE
  tumour outcome (control, treated, inhibition, significance): 11/39 (29%), 10/25 (40%), -38%, not calculated
Carcinogen: ETHYLNITROSOUREA, 759-73-9, Dose [Inhibitor]: 0, 1800 PPM IN DRINKING WATER BEGINNING AT 5 WK OF AGE AND CONTINUING TO 51 WK OF AGE (STUDY DURATION: 52 WK), Species: MOUSE, Strain/Sex: CD-1/MALE, Target Tissue: Type of Lesion: LUNG: ADENOMA, Dose [Carcinogen]: 20 MG/KG ONCE AT 15 D OF AGE
  tumour outcome (control, treated, inhibition, significance): 15/30 (50%), 12/29 (41%), 18%, not calculated
Carcinogen: ETHYLNITROSOUREA, 759-73-9, Dose [Inhibitor]: 0, 1800 PPM IN DRINKING WATER BEGINNING AT 5 WK OF AGE AND CONTINUING TO 51 WK OF AGE (STUDY DURATION: 52 WK), Species: MOUSE, Strain/Sex: CD-1/MALE, Target Tissue: Type of Lesion: LUNG: CARCINOMA, Dose [Carcinogen]: 5 MG/KG ONCE AT 15 D OF AGE
  tumour outcome (control, treated, inhibition, significance): 1/39 (3%), 1/25 (4%), -33%, not calculated
Carcinogen: ETHYLNITROSOUREA, 759-73-9, Dose [Inhibitor]: 0, 1800 PPM IN DRINKING WATER BEGINNING AT 5 WK OF AGE AND CONTINUING TO 51 WK OF AGE (STUDY DURATION: 52 WK), Species: MOUSE, Strain/Sex: CD-1/MALE, Target Tissue: Type of Lesion: LUNG: CARCINOMA, Dose [Carcinogen]: 20 MG/KG ONCE AT 15 D OF AGE
  tumour outcome (control, treated, inhibition, significance): 2/30 (7%), 4/29 (14%), -100%, not calculated
